What was measured:
[1] = Cytotoxicity against human CRL8155 cells assessed as growth inhibition after 48 hrs by Alamar blue assay; assay type: cell-based; settings: crl8155, 48 h
[2] = system: Trypanosoma brucei brucei; assay: Antiparasitic activity against Trypanosoma brucei brucei BF427 assessed as growth inhibition after 48 hrs by Alamar blue assay; assay type: functional; settings: BF427, 48 h
HepG2 = assay: Cytotoxicity against human HepG2 cells assessed as growth inhibition after 48 hrs by Alamar blue assay; assay type: cell-based; settings: hepg2, 48 h
[3] = Cmax in mouse at 50 mg/kg, po by LC-MS analysis; assay type: ADME, organism-based; set-up: dose 50 mg/kg, route oral; settings: in vivo
[4] = Ratio of drug level in brain to plasma in mouse at 5 mg/kg, ip after 1 hr by LC-MS analysis; assay type: ADME, organism-based
Liver [5] = assay: Half life in human liver microsomes at 1.5 uM by LC-MS analysis; assay type: ADME, microsome
[6] = AUC (0 to 8 hrs) in mouse at 50 mg/kg, po by LC-MS analysis; assay type: ADME, organism-based; set-up: dose 50 mg/kg, time < 8 hr, route oral; settings: in vivo
[7] = system: Trypanosoma brucei rhodesiense; assay: Antiparasitic activity against Trypanosoma brucei rhodesiense STIB900 infected in Swiss-Webster mouse assessed as cure rate at 50 mg/kg, bid administered via oral gavage from day 2 to 5 post infection measured after 60 days by microscopic method relative to control; assay type: functional
Cytochrome P450 3A4 = Cytochrome P450 3A4 (Homo sapiens, UniProt P08684); assay: Inhibition of human CYP3A4; assay type: ADME
Liver [8] = assay: Half life in mouse liver microsomes at 1.5 uM by LC-MS analysis; assay type: ADME, microsome

Sequence of Cytochrome P450 3A4 (P08684 whole entry): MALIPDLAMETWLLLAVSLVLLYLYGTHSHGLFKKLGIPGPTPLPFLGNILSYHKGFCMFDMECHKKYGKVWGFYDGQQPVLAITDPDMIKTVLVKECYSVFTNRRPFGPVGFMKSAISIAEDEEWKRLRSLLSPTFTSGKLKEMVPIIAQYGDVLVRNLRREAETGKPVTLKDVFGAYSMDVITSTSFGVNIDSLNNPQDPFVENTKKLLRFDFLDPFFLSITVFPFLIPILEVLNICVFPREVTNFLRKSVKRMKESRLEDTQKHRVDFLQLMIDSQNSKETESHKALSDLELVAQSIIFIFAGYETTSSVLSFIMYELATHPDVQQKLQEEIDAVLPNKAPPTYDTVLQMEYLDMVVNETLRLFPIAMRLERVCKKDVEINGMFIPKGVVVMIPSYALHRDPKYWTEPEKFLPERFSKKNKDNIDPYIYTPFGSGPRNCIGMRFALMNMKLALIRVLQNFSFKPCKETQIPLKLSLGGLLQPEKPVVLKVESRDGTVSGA

Cc1cc(C)cc(COc2ccc(N(CCN)C(=O)c3cccnc3C(F)(F)F)cc2)c1
CC50 [1]: 4.74 µM
EC50 [2]: 0.003 µM
CC50 (HepG2): 6.46 µM

Cc1ccc(N(CCN)C(=O)c2ccc(Cl)cc2Cl)cc1
CC50 [1]: 24.9 µM
EC50 [2]: 1.52 µM

NCCN(C(=O)c1ccc(Cl)cc1Cl)c1ccc(Oc2cccc(Cl)c2)cc1
EC50 [2]: 0.28 µM

NCCN(C(=O)c1c(Cl)cc(Cl)cc1Cl)c1ccc(Cl)cc1
CC50 [1]: 8.5 µM
EC50 [2]: 0.23 µM
CC50 (HepG2): 21.5 µM

Cc1cc(C)cc(COc2ccc(N(CCN)C(=O)c3ccccc3C(F)(F)F)cc2)c1.Cl
CC50 [1]: 2.94 µM
Cmax [3]: 1.01 µM
BPR [4]: 0.96
EC50 [2]: 0.01 µM
t1/2 (Liver [5]): > 1 h
CC50 (HepG2): 3.94 µM
AUC(0-t) at 8 h [6]: 6.51 µM·h
Activity [7]: 33%

O=C(c1ccc(Cl)cc1Cl)N(c1ccc(Cl)cc1)c1cccnc1
EC50 [2]: > 10 µM

NCCN(C(=O)c1cc(Cl)ccc1Cl)c1ccc(Cl)cc1
EC50 [2]: 0.6 µM

O=C(c1ccc(Cl)cc1Cl)N(c1ccc(Cl)cc1)C1CCNC1 (stereo not given)
EC50 [2]: 4.47 µM

CC(=O)NCCN(C(=O)c1ccc(Cl)cc1Cl)c1ccc(Cl)cc1
EC50 [2]: > 10 µM

CC(C)c1ccc(COc2ccc(N(CCN)C(=O)c3ccccc3[N+](=O)[O-])cc2)cc1
CC50 [1]: 3.03 µM
EC50 [2]: 0.001 µM

NCCN(C(=O)c1ccc(Cl)cc1Cl)c1ccc(Oc2ccc(Cl)cc2)cc1
EC50 [2]: 0.17 µM

NCCN(C(=O)c1cccc(Cl)c1Cl)c1ccc(Cl)cc1
EC50 [2]: 0.31 µM

NCCN(C(=O)c1ccc(F)cc1)c1ccc(Cl)cc1
EC50 [2]: 4.01 µM

Cl.NCCN(C(=O)c1ccc(Cl)cc1Cl)c1ccc(F)cc1
CC50 [1]: 30 µM
IC50 (Cytochrome P450 3A4): 0.074 µM
CC50 (HepG2): 40 µM
t1/2 (Liver [8]): > 1 h

NCCN(C(=O)c1ccccc1C(F)(F)F)c1ccc(Cl)cc1
EC50 [2]: 0.33 µM

N#CCN(C(=O)c1ccc(Cl)cc1Cl)c1ccc(Cl)cc1
EC50 [2]: > 10 µM

NCCN(C(=O)c1ccc(Cl)cc1Cl)c1ccc(-c2ccccc2)cc1
EC50 [2]: 1.83 µM

NCCN(C(=O)c1ccccc1)c1ccc(Cl)cc1
EC50 [2]: 13 µM

COc1cc(N(CCN)C(=O)c2ccc(Cl)cc2Cl)ccc1Cl
EC50 [2]: 4.52 µM

CNCCN(C(=O)c1ccc(Cl)cc1Cl)c1ccc(Cl)cc1
EC50 [2]: 1.65 µM

NCCN(C(=O)c1ccc(Cl)cc1)c1ccc(Cl)cc1
EC50 [2]: 3.12 µM

Cc1ccc(C(=O)N(CCN)c2ccc(Cl)cc2)c(C)c1
EC50 [2]: 0.97 µM

CC(CN)N(C(=O)c1ccc(Cl)cc1Cl)c1ccc(Cl)cc1 (stereo not given)
EC50 [2]: 3.56 µM

COc1ccccc1C(=O)N(CCN)c1ccc(Cl)cc1
EC50 [2]: 2.51 µM

NCCN(C(=O)c1ccc(Cl)c([N+](=O)[O-])c1)c1ccc(Cl)cc1
EC50 [2]: 2.9 µM

NCCN(C(=O)c1ccc(Cl)cc1Cl)c1ccc(F)c(Cl)c1
EC50 [2]: 2.72 µM

NCCN(C(=O)c1cc(Cl)cc(Cl)c1)c1ccc(Cl)cc1
EC50 [2]: 1.08 µM

NCCN(C(=O)c1ccc(Cl)cc1Cl)c1ccc(OCc2cccc(Cl)c2)cc1
CC50 [1]: 2.38 µM
EC50 [2]: 0.043 µM
CC50 (HepG2): 3.78 µM

NCCN(C(=O)c1cc([N+](=O)[O-])ccc1Cl)c1ccc(Cl)cc1
EC50 [2]: 1.2 µM

NCCN(C(=O)c1cccc(Cl)c1)c1ccc(Cl)cc1
EC50 [2]: 1.2 µM

CC(C)c1ccc(COc2ccc(N(CCN)C(=O)c3ccc(F)cc3C(F)(F)F)cc2)cc1.Cl
CC50 [1]: 2.83 µM
Cmax [3]: 1.78 µM
BPR [4]: 0.22
EC50 [2]: 0.002 µM
t1/2 (Liver [5]): 0.867 h
CC50 (HepG2): 3.66 µM
AUC(0-t) at 8 h [6]: 11.1 µM·h
Activity [7]: 33%

NCCN(C(=O)c1ccc(Cl)cc1Cl)c1ccc(Cl)cc1
CC50 [1]: 12.5 µM
IC50 (Cytochrome P450 3A4): 0.07 µM
EC50 [2]: 0.31 µM
CC50 (HepG2): 14.2 µM

CC(N)CN(C(=O)c1ccc(Cl)cc1Cl)c1ccc(Cl)cc1 (stereo not given)
EC50 [2]: 1.05 µM

CC(C)c1ccc(COc2ccc(N(CCN)C(=O)c3ccccc3C(F)(F)F)cc2)cc1
CC50 [1]: 2.22 µM
EC50 [2]: 0.003 µM
CC50 (HepG2): 3.99 µM

O=C(c1ccc(Cl)cc1Cl)N(Cc1cccs1)c1ccc(Cl)cc1
EC50 [2]: > 10 µM

CC(C)(C)c1ccc(COc2ccc(N(CCN)C(=O)c3ccc(Cl)cc3Cl)cc2)cc1
CC50 [1]: 2.12 µM
EC50 [2]: 0.005 µM
CC50 (HepG2): 3.83 µM

NCCCN(C(=O)c1ccc(Cl)cc1Cl)c1ccc(Cl)cc1
EC50 [2]: 2.9 µM

NC(=O)CCN(C(=O)c1ccc(Cl)cc1Cl)c1ccc(Cl)cc1
EC50 [2]: > 10 µM

CC(C)c1ccc(COc2ccc(N(CCN)C(=O)c3ccccc3Br)cc2)cc1
CC50 [1]: 1.91 µM
EC50 [2]: 0.001 µM

O=C(c1ccc(Cl)cc1Cl)N(CCN1CCOCC1)c1ccc(Cl)cc1
EC50 [2]: > 10 µM

NCCN(C(=O)c1ccc(F)cc1C(F)(F)F)c1ccc(Cl)cc1
CC50 [1]: 42.3 µM
EC50 [2]: 0.18 µM
CC50 (HepG2): 37.7 µM

O=C(c1ccc(Cl)cc1Cl)N(CCO)c1ccc(Cl)cc1
EC50 [2]: > 10 µM

NCCN(C(=O)c1ccccc1Cl)c1ccc(Cl)cc1
CC50 [1]: > 50 µM
EC50 [2]: 0.44 µM
CC50 (HepG2): > 50 µM

NCCN(C(=O)c1c(F)c(F)c(F)c(F)c1F)c1ccc(Cl)cc1
EC50 [2]: 0.54 µM

NCCN(C(=O)c1cccc(F)c1)c1ccc(Cl)cc1
EC50 [2]: 4.03 µM

NCCN(C(=O)c1ccc(Cl)cc1Cl)c1ccc(Cl)cc1Cl
EC50 [2]: 0.51 µM

CCc1ccc(COc2ccc(N(CCN)C(=O)c3ccc(Cl)cc3Cl)cc2)cc1
CC50 [1]: 2.59 µM
EC50 [2]: 0.015 µM
CC50 (HepG2): 5.6 µM

NCCN(C(=O)c1cccnc1C(F)(F)F)c1ccc(OCc2ccc(Cl)cc2)cc1
CC50 [1]: 8.01 µM
EC50 [2]: 0.003 µM
CC50 (HepG2): 10.2 µM

NCCN(C(=O)c1cccnc1Cl)c1ccc(OCc2ccc(Cl)cc2)cc1
CC50 [1]: 11.5 µM
EC50 [2]: 0.03 µM
CC50 (HepG2): 15.2 µM

CC(C)c1ccc(N(CCN)C(=O)c2ccc(Cl)cc2Cl)cc1
EC50 [2]: 3.89 µM

COc1ccc(C(=O)N(CCN)c2ccc(Cl)cc2)cc1
EC50 [2]: > 10 µM

Cc1ccc(C(=O)N(CCN)c2ccc(Cl)cc2)cc1
EC50 [2]: 7 µM

NCCN(C(=O)c1c(Cl)cccc1Cl)c1ccc(Cl)cc1
CC50 [1]: > 50 µM
EC50 [2]: 0.78 µM
CC50 (HepG2): > 50 µM

Cc1cc(C)cc(COc2ccc(N(CCN)C(=O)c3ccc(F)cc3C(F)(F)F)cc2)c1
CC50 [1]: 2.24 µM
EC50 [2]: 0.005 µM
CC50 (HepG2): 4.53 µM

NCCN(C(=O)c1ccc(Cl)cc1Cl)c1ccc(Cl)c(Cl)c1
EC50 [2]: 1.68 µM

NCCN(C(=O)c1ccc(Cl)cc1Cl)c1ccc(Oc2ccccc2Cl)cc1
EC50 [2]: 3.6 µM

O=C(c1ccc(Cl)cc1Cl)N(Cc1cnc[nH]1)c1ccc(Cl)cc1
EC50 [2]: > 10 µM

NCCN(C(=O)c1ccc(Cl)cc1Cl)c1ccc(Br)cc1
CC50 [1]: 11.5 µM
EC50 [2]: 0.33 µM
CC50 (HepG2): 11 µM

O=C(c1ccc(Cl)cc1Cl)N(Cc1ccco1)c1ccc(Cl)cc1
EC50 [2]: > 10 µM

O=C(c1ccc(Cl)cc1Cl)N(Cc1ncc[nH]1)c1ccc(Cl)cc1
EC50 [2]: > 10 µM

NCCN(C(=O)c1ccc(Cl)cc1Cl)c1cccc(Cl)c1
EC50 [2]: 3.05 µM

NCCN(C(=O)c1ccc(Cl)cc1Cl)c1ccc(N)cc1
CC50 [1]: 11 µM
EC50 [2]: > 10 µM

NCCN(C(=O)c1cccnc1C(F)(F)F)c1ccc(Cl)cc1
EC50 [2]: 0.59 µM

CN(C)CCN(C(=O)c1ccc(Cl)cc1Cl)c1ccc(Cl)cc1
EC50 [2]: > 10 µM

NCCN(C(=O)c1ccc(F)cc1F)c1ccc(Cl)cc1
EC50 [2]: 1.24 µM

NCCN(C(=O)c1ccc(Cl)cc1Cl)c1cccc(Oc2ccc(Cl)cc2)c1
EC50 [2]: 2.13 µM

NCCN(C(=O)c1ccc(Cl)cc1Cl)c1ccc([N+](=O)[O-])cc1
EC50 [2]: > 10 µM

O=C(c1ccc(Cl)cc1Cl)N(c1ccc(Cl)cc1)C1CCCNC1 (stereo not given)
EC50 [2]: > 10 µM

COc1ccc(C(=O)N(CCN)c2ccc(Cl)cc2)c(OC)c1
EC50 [2]: 4.82 µM

Cc1ccccc1C(=O)N(CCN)c1ccc(Cl)cc1
EC50 [2]: 0.52 µM
